Data taken from publication PMC8249783, “A novel multikinase inhibitor SKLB‐YTH‐60 ameliorates inflammation and fibrosis in bleomycin‐induced lung fibrosis mouse models” (Cell Proliferation, 2021).
Converted amounts (≈) assume the structure as drawn. Like-named read-outs stand apart in the source and are kept apart here.

Assays:
A549 cells = assay: Cell viability assay (MTT); format: cell-based, human
Method: The cell viability of YTH‐60 and Nintedanib treatment was performed by MTT and CCK8 assay. Briefly, the exponentially growing cells were seeded in 96‐well (2‐5 × 10^3 cells·well^−1) and cultured for 24 hours. The cells were treated with different concentrations of YTH‐60 (0, 0.625, 1.25, 2.5, 5, 10 µmol·L^−1), after treatment for 24, 48 and 72 hours, respectively, a volume of 20 μL of 5 mg·mL^−1 MTT solution or 10 μL CCK‐8 solution was added to each well and incubation for 2‐4 hours at 37°C. Finally, the 96‐well plates were read on Multiskan FC microplate spectrophotometer at 570 or 450 nm wavelength.

[1] = Determination of thermodynamic solubility; format: physicochemical; conditions: for solubility at 5 min: thermodynamic from solid, double testing
Method: Weigh about 1 mg of the test compound into 1.5 mL centrifuge tube and add 0.5 mL various solvents, sonicating for 5 minutes (if the compound is completely dissolved, then added again test compound until a little solid remains). Take the supernatant after centrifugation, diluting to a suitable concentration using and measuring absorbance values by UV spectrophotometer. Weigh 10 mg compound accurately of the test compound into 1.5 mL centrifuge tube and add 1.2 mL methanol solution to prepare 8.3 mg·mL^−1 mother solution. Take the above described mother liquor to prepare the solution in concentrations of 8.3, 4.2, 2.1, 1.0, 0.52, 0.26 mg·mL^−1 then measure absorbance value. With concentration c (mg·mL^−1) as the abscissa, absorbance A as the ordinate, mapping and fitting line to get the standard curve (The correlation coefficient should be greater than 0.998). Calculate solubility according to the standard curve of the linear equation.

[2] = system: phosphorylation of Smad2/3; assay: Western blot of TGF‐β1‐induced Smad signalling in fibroblasts; format: cell-based; conditions: TGF‐β1, 24 hours
Method: Samples of cells and mouse lung tissues were lysed in RIPA buffer with a protease and phosphatase inhibitors (Selleckchem). The protein concentrations in the cell lysate were measured by the Lowry method. Approximately 50 μg of total protein was separated by SDS‐PAGE and then transferred to polyvinylidene fluoride (PVDF) membranes (Amersham Bioscience). After the membranes incubation with the specific primary and secondary antibodies, the reactive bands were detected with enhanced chemiluminescent substrate to horseradish peroxidase.

- solubility compared with Nintedanib (in words) [1]: better solubility than Nintedanib
- solubility at 5 min ([1]; organic solvent or mixture, Acetone, read-out: Solubility, Acetone): 83.1 ± 0.89 mg/mL (≈ 140 mM)
- solubility at 5 min ([1]; organic solvent or mixture, Acetonitrile, read-out: Solubility, Acetonitrile): 18.3 ± 1.2 mg/mL (≈ 30.8 mM)
- solubility at 5 min ([1]; organic solvent or mixture, Ethyl acetate, read-out: Solubility, Ethyl acetate): 101 ± 4.02 mg/mL (≈ 170 mM)
- solubility at 5 min ([1]; organic solvent or mixture, Ethyl alcohol, read-out: Solubility, Ethyl alcohol): 77 ± 1.53 mg/mL (≈ 130 mM)
- solubility at 5 min ([1]; saline or isotonic, Normal saline, read-out: Solubility, Normal saline): 12.7 ± 0.15 mg/mL (≈ 21.4 mM)
- solubility at 5 min ([1]; Water, read-out: Solubility, Water): 1.71 ± 0.14 mg/mL (≈ 2.88 mM)
Compound: COc1cc(OC)c(Cl)c(-c2ccc3c(/C=C/c4ccc(N(C)C(=O)CN5CCN(C)CC5)cc4)n[nH]c3c2)c1Cl [YTH‐60, (E)‐N‐(4‐(2‐(6‐(2,6‐dichloro‐3,5‐dimethoxyphenyl)‐1H‐indazol‐3‐yl)vinyl)phenyl)‐N‐methyl‐2‐(4‐methylpiperazin‐1‐yl)acetamide]
- viability of A549 cells (in words) (A549 cells): suppressed the viability of A549 cells
- TGF‐β1‐induced phosphorylation of Smad2/3 (in words) [2]: significantly reduced this phosphorylation
